Results taken from ChEMBL document CHEMBL1909570, “Synthesis and antibacterial activity of N4-mono alkyl derivatives of novel glycopeptide LYV07ww01” (2011).
In brackets after ≈: the same amount, converted by molar mass.

What was measured:
Assay type in all cases: functional
Staphylococcus aureus = assay: Antibacterial activity against Staphylococcus aureus 26003 by CLSI agar microdilution method
[1] = test system: Staphylococcus epidermidis; assay: Antibacterial activity against Staphylococcus epidermidis 26069 by CLSI agar microdilution method
Enterococcus faecium = assay: Antibacterial activity against Enterococcus faecium 32220 by CLSI agar microdilution method
Streptococcus pneumoniae = assay: Antibacterial activity against Streptococcus pneumoniae 31002 by CLSI agar microdilution method
Streptococcus = assay: Antibacterial activity against Streptococcus gamma 32206 by CLSI agar microdilution method
Staphylococcus = assay: Antibacterial activity against Staphylococcus albus 26101 by CLSI agar microdilution method

Compound `CCCCCCCCOc1ccc(CN[C@@]2(C)C[C@H](O[C@H]3[C@H](Oc4c5cc6cc4Oc4ccc(cc4Cl)[C@@H](O[C@H]4C[C@](C)(N)[C@H](O)[C@H](C)O4)[C@@H]4NC(=O)[C@H](NC(=O)[C@@H]6NC(=O)[C@H](CC(N)=O)NC(=O)[C@H](NC(=O)[C@@H](CC(C)C)NC)[C@H](O)c6ccc(c(Cl)c6)O5)c5ccc(O)c(c5)-c5c(O)cc(O)cc5[C@H](C(=O)O)NC4=O)O[C@H](CO)[C@@H](O)[C@@H]3O)O[C@@H](C)[C@H]2O)cc1` has an MIC (Staphylococcus aureus) of 12.5 µg/mL (≈ 6.9 µM), an MIC [1] greater than 25 µg/mL and an MIC (Enterococcus faecium) of 12.5 µg/mL (≈ 6.9 µM). It also gave an MIC (Streptococcus pneumoniae) of 6.25 µg/mL (≈ 3.45 µM), an MIC (Streptococcus) of 6.25 µg/mL (≈ 3.45 µM) and an MIC (Staphylococcus) of 12.5 µg/mL (≈ 6.9 µM).

For `CCCCCCCN[C@@]1(C)C[C@H](O[C@H]2[C@H](Oc3c4cc5cc3Oc3ccc(cc3Cl)[C@@H](O[C@H]3C[C@](C)(N)[C@H](O)[C@H](C)O3)[C@@H]3NC(=O)[C@H](NC(=O)[C@@H]5NC(=O)[C@H](CC(N)=O)NC(=O)[C@H](NC(=O)[C@@H](CC(C)C)NC)[C@H](O)c5ccc(c(Cl)c5)O4)c4ccc(O)c(c4)-c4c(O)cc(O)cc4[C@H](C(=O)O)NC3=O)O[C@H](CO)[C@@H](O)[C@@H]2O)O[C@@H](C)[C@H]1O`, the MIC (Staphylococcus aureus) was 1.56 µg/mL (≈ 0.923 µM), the MIC [1] was greater than 25 µg/mL and the MIC (Enterococcus faecium) was greater than 25 µg/mL. The MIC (Streptococcus pneumoniae) was 0.78 µg/mL (≈ 0.461 µM), the MIC (Streptococcus) was 1.56 µg/mL (≈ 0.923 µM) and the MIC (Staphylococcus) was 1.56 µg/mL (≈ 0.923 µM).

`CCCCCCCCN[C@@]1(C)C[C@H](O[C@H]2[C@H](Oc3c4cc5cc3Oc3ccc(cc3Cl)[C@@H](O[C@H]3C[C@](C)(N)[C@H](O)[C@H](C)O3)[C@@H]3NC(=O)[C@H](NC(=O)[C@@H]5NC(=O)[C@H](CC(N)=O)NC(=O)[C@H](NC(=O)[C@@H](CC(C)C)NC)[C@H](O)c5ccc(c(Cl)c5)O4)c4ccc(O)c(c4)-c4c(O)cc(O)cc4[C@H](C(=O)O)NC3=O)O[C@H](CO)[C@@H](O)[C@@H]2O)O[C@@H](C)[C@H]1O` was tested, and the MIC (Staphylococcus aureus) was 3.13 µg/mL (≈ 1.84 µM), the MIC [1] was greater than 25 µg/mL and the MIC (Enterococcus faecium) was 1.56 µg/mL (≈ 0.915 µM). For the same compound, the MIC (Streptococcus pneumoniae) was 0.39 µg/mL (≈ 0.229 µM), the MIC (Streptococcus) was 1.56 µg/mL (≈ 0.915 µM) and the MIC (Staphylococcus) was 3.13 µg/mL (≈ 1.84 µM).

`CCCCCCOc1ccc(CN[C@@]2(C)C[C@H](O[C@H]3[C@H](Oc4c5cc6cc4Oc4ccc(cc4Cl)[C@@H](O[C@H]4C[C@](C)(N)[C@H](O)[C@H](C)O4)[C@@H]4NC(=O)[C@H](NC(=O)[C@@H]6NC(=O)[C@H](CC(N)=O)NC(=O)[C@H](NC(=O)[C@@H](CC(C)C)NC)[C@H](O)c6ccc(c(Cl)c6)O5)c5ccc(O)c(c5)-c5c(O)cc(O)cc5[C@H](C(=O)O)NC4=O)O[C@H](CO)[C@@H](O)[C@@H]3O)O[C@@H](C)[C@H]2O)cc1` showed an MIC (Staphylococcus aureus) of 6.25 µg/mL (≈ 3.51 µM), an MIC [1] greater than 25 µg/mL and an MIC (Enterococcus faecium) of 6.25 µg/mL (≈ 3.51 µM). For the same compound, the MIC (Streptococcus pneumoniae) was 3.13 µg/mL (≈ 1.76 µM), the MIC (Streptococcus) was 3.13 µg/mL (≈ 1.76 µM) and the MIC (Staphylococcus) was 6.25 µg/mL (≈ 3.51 µM).

`CN[C@H](CC(C)C)C(=O)N[C@H]1C(=O)N[C@@H](CC(N)=O)C(=O)N[C@H]2C(=O)N[C@H]3C(=O)N[C@H](C(=O)N[C@@H](C(=O)O)c4cc(O)cc(O)c4-c4cc3ccc4O)[C@H](O[C@H]3C[C@](C)(N)[C@H](O)[C@H](C)O3)c3ccc(c(Cl)c3)Oc3cc2cc(c3O[C@@H]2O[C@H](CO)[C@@H](O)[C@H](O)[C@H]2O[C@H]2C[C@](C)(NCc3cccc(Cl)c3)[C@H](O)[C@H](C)O2)Oc2ccc(cc2Cl)[C@H]1O` showed an MIC (Staphylococcus aureus) of 1.56 µg/mL (≈ 0.909 µM), an MIC [1] greater than 25 µg/mL and an MIC (Enterococcus faecium) of 1.56 µg/mL (≈ 0.909 µM). It also gave an MIC (Streptococcus pneumoniae) of 0.78 µg/mL (≈ 0.454 µM), an MIC (Streptococcus) of 0.78 µg/mL (≈ 0.454 µM) and an MIC (Staphylococcus) of 1.56 µg/mL (≈ 0.909 µM).

`CN[C@H](CC(C)C)C(=O)N[C@H]1C(=O)N[C@@H](CC(N)=O)C(=O)N[C@H]2C(=O)N[C@H]3C(=O)N[C@H](C(=O)N[C@@H](C(=O)O)c4cc(O)cc(O)c4-c4cc3ccc4O)[C@H](O[C@H]3C[C@](C)(N)[C@H](O)[C@H](C)O3)c3ccc(c(Cl)c3)Oc3cc2cc(c3O[C@@H]2O[C@H](CO)[C@@H](O)[C@H](O)[C@H]2O[C@H]2C[C@](C)(NCc3ccc(Oc4cccc(OC)c4)cc3)[C@H](O)[C@H](C)O2)Oc2ccc(cc2Cl)[C@H]1O` showed an MIC (Staphylococcus aureus) of 3.13 µg/mL (≈ 1.73 µM), an MIC [1] greater than 25 µg/mL and an MIC (Enterococcus faecium) of 3.13 µg/mL (≈ 1.73 µM). The MIC (Streptococcus pneumoniae) was 3.13 µg/mL (≈ 1.73 µM), the MIC (Streptococcus) was 0.78 µg/mL (≈ 0.432 µM) and the MIC (Staphylococcus) was 3.13 µg/mL (≈ 1.73 µM).

`CCCCCCCCCCN[C@@]1(C)C[C@H](O[C@H]2[C@H](Oc3c4cc5cc3Oc3ccc(cc3Cl)[C@@H](O[C@H]3C[C@](C)(N)[C@H](O)[C@H](C)O3)[C@@H]3NC(=O)[C@H](NC(=O)[C@@H]5NC(=O)[C@H](CC(N)=O)NC(=O)[C@H](NC(=O)[C@@H](CC(C)C)NC)[C@H](O)c5ccc(c(Cl)c5)O4)c4ccc(O)c(c4)-c4c(O)cc(O)cc4[C@H](C(=O)O)NC3=O)O[C@H](CO)[C@@H](O)[C@@H]2O)O[C@@H](C)[C@H]1O` showed an MIC (Staphylococcus aureus) of 6.25 µg/mL (≈ 3.61 µM), an MIC [1] greater than 25 µg/mL and an MIC (Enterococcus faecium) greater than 25 µg/mL. The MIC (Streptococcus pneumoniae) was 6.25 µg/mL (≈ 3.61 µM), the MIC (Streptococcus) was 6.25 µg/mL (≈ 3.61 µM) and the MIC (Staphylococcus) was 6.25 µg/mL (≈ 3.61 µM).

In the case of `CN[C@H](CC(C)C)C(=O)N[C@H]1C(=O)N[C@@H](CC(N)=O)C(=O)N[C@H]2C(=O)N[C@H]3C(=O)N[C@H](C(=O)N[C@@H](C(=O)O)c4cc(O)cc(O)c4-c4cc3ccc4O)[C@H](O[C@H]3C[C@](C)(N)[C@H](O)[C@H](C)O3)c3ccc(c(Cl)c3)Oc3cc2cc(c3O[C@@H]2O[C@H](CO)[C@@H](O)[C@H](O)[C@H]2O[C@H]2C[C@](C)(NCc3ccc4ccccc4c3)[C@H](O)[C@H](C)O2)Oc2ccc(cc2Cl)[C@H]1O`, the MIC (Staphylococcus aureus) is reported as 1.56 µg/mL (≈ 0.9 µM), the MIC [1] is reported as greater than 25 µg/mL and the MIC (Enterococcus faecium) is reported as 3.13 µg/mL (≈ 1.81 µM). It also gave an MIC (Streptococcus pneumoniae) of 1.56 µg/mL (≈ 0.9 µM), an MIC (Streptococcus) of 0.78 µg/mL (≈ 0.45 µM) and an MIC (Staphylococcus) of 3.13 µg/mL (≈ 1.81 µM).

Compound `CCCCCCN[C@@]1(C)C[C@H](O[C@H]2[C@H](Oc3c4cc5cc3Oc3ccc(cc3Cl)[C@@H](O[C@H]3C[C@](C)(N)[C@H](O)[C@H](C)O3)[C@@H]3NC(=O)[C@H](NC(=O)[C@@H]5NC(=O)[C@H](CC(N)=O)NC(=O)[C@H](NC(=O)[C@@H](CC(C)C)NC)[C@H](O)c5ccc(c(Cl)c5)O4)c4ccc(O)c(c4)-c4c(O)cc(O)cc4[C@H](C(=O)O)NC3=O)O[C@H](CO)[C@@H](O)[C@@H]2O)O[C@@H](C)[C@H]1O` has an MIC (Staphylococcus aureus) of 1.56 µg/mL (≈ 0.93 µM), an MIC [1] greater than 25 µg/mL and an MIC (Enterococcus faecium) greater than 25 µg/mL. For the same compound, the MIC (Streptococcus pneumoniae) was 0.78 µg/mL (≈ 0.465 µM), the MIC (Streptococcus) was 1.56 µg/mL (≈ 0.93 µM) and the MIC (Staphylococcus) was 3.13 µg/mL (≈ 1.87 µM).

`CN[C@H](CC(C)C)C(=O)N[C@H]1C(=O)N[C@@H](CC(N)=O)C(=O)N[C@H]2C(=O)N[C@H]3C(=O)N[C@H](C(=O)N[C@@H](C(=O)O)c4cc(O)cc(O)c4-c4cc3ccc4O)[C@H](O[C@H]3C[C@](C)(N)[C@H](O)[C@H](C)O3)c3ccc(c(Cl)c3)Oc3cc2cc(c3O[C@@H]2O[C@H](CO)[C@@H](O)[C@H](O)[C@H]2O[C@H]2C[C@](C)(NCc3ccc(-c4ccc(Cl)cc4)cc3)[C@H](O)[C@H](C)O2)Oc2ccc(cc2Cl)[C@H]1O` was tested, and the MIC (Staphylococcus aureus) was 6.25 µg/mL (≈ 3.49 µM), the MIC [1] was 6.25 µg/mL (≈ 3.49 µM) and the MIC (Enterococcus faecium) was 6.25 µg/mL (≈ 3.49 µM). The MIC (Streptococcus pneumoniae) was 3.13 µg/mL (≈ 1.75 µM), the MIC (Streptococcus) was 3.13 µg/mL (≈ 1.75 µM) and the MIC (Staphylococcus) was 3.13 µg/mL (≈ 1.75 µM).

`CN[C@H](CC(C)C)C(=O)N[C@H]1C(=O)N[C@@H](CC(N)=O)C(=O)N[C@H]2C(=O)N[C@H]3C(=O)N[C@H](C(=O)N[C@@H](C(=O)O)c4cc(O)cc(O)c4-c4cc3ccc4O)[C@H](O[C@H]3C[C@](C)(N)[C@H](O)[C@H](C)O3)c3ccc(c(Cl)c3)Oc3cc2cc(c3O[C@@H]2O[C@H](CO)[C@@H](O)[C@H](O)[C@H]2O[C@H]2C[C@](C)(NCc3ccc(Cl)c(Cl)c3)[C@H](O)[C@H](C)O2)Oc2ccc(cc2Cl)[C@H]1O` showed an MIC (Staphylococcus aureus) of 3.13 µg/mL (≈ 1.79 µM), an MIC [1] greater than 25 µg/mL and an MIC (Enterococcus faecium) of 6.25 µg/mL (≈ 3.57 µM). The MIC (Streptococcus pneumoniae) was 0.78 µg/mL (≈ 0.445 µM), the MIC (Streptococcus) was 0.78 µg/mL (≈ 0.445 µM) and the MIC (Staphylococcus) was 3.13 µg/mL (≈ 1.79 µM).
